#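 At the GI50, growth is halved. Definition used: TGI = concentration required for complete inhibition of growth.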
# Legend:
# Assay in all cases: growth of human tumour cells (NCI), 384-well format
# HOP-62 NSCLC = test system: HOP-62 NSCLC
# TK-10 renal = test system: TK-10 renal
# 786-0 renal = test system: 786-0 renal
# SN12C renal = test system: SN12C renal
# SNB-75 CNS = test system: SNB-75 CNS
# MALME-3M melanoma = test system: MALME-3M melanoma
# SW-620 colon = test system: SW-620 colon
# HCT-116 colon = test system: HCT-116 colon
# HT29 colon = test system: HT29 colon
# PC-3 prostate = test system: PC-3 prostate
# SF-268 CNS = test system: SF-268 CNS
# U251 glioblastoma = test system: U251 glioblastoma
# SK-MEL-28 melanoma = test system: SK-MEL-28 melanoma
# NCI-H522 lung = test system: NCI-H522 lung
# UACC-62 melanoma = test system: UACC-62 melanoma
# MDA-MB-468 breast = test system: MDA-MB-468 breast
# NCI-H23 lung = test system: NCI-H23 lung
# MDA-MB-435 melanoma = test system: MDA-MB-435 melanoma
# SK-MEL-5 melanoma = test system: SK-MEL-5 melanoma
# OVCAR-4 ovarian = test system: OVCAR-4 ovarian
# CCRF-CEM leukemia = test system: CCRF-CEM leukemia
# ACHN renal = test system: ACHN renal
# HL-60(TB) leukemia = test system: HL-60(TB) leukemia
# K-562 leukemia = test system: K-562 leukemia
# HS 578T breast = test system: HS 578T breast
# RXF 393 renal = test system: RXF 393 renal
# NCI-H322M lung = test system: NCI-H322M lung
# HCC-2998 colon = test system: HCC-2998 colon
smiles,measurement,setting,value
COC1CCC(N2C(=O)CNc3ncc(-c4ccc(C(C)(C)O)nc4)nc32)CC1 (stereo unspecified),GI50,HOP-62 NSCLC,672 nM
same,TGI,HOP-62 NSCLC,> 100000 nM
same,GI50,TK-10 renal,504 nM
same,TGI,TK-10 renal,17200 nM
same,GI50,786-0 renal,911 nM
same,TGI,786-0 renal,> 100000 nM
same,GI50,SN12C renal,275 nM
same,TGI,SN12C renal,68400 nM
same,GI50,SNB-75 CNS,256 nM
same,TGI,SNB-75 CNS,22900 nM
same,GI50,MALME-3M melanoma,68.9 nM
same,TGI,MALME-3M melanoma,587 nM
same,GI50,SW-620 colon,2580 nM
same,TGI,SW-620 colon,> 100000 nM
same,GI50,HCT-116 colon,690 nM
same,TGI,HCT-116 colon,21800 nM
same,GI50,HT29 colon,697 nM
same,TGI,HT29 colon,> 100000 nM
same,GI50,PC-3 prostate,157 nM
same,TGI,PC-3 prostate,14600 nM
same,GI50,SF-268 CNS,2180 nM
same,TGI,SF-268 CNS,20000 nM
same,GI50,U251 glioblastoma,1900 nM
same,TGI,U251 glioblastoma,41200 nM
same,GI50,SK-MEL-28 melanoma,234 nM
same,TGI,SK-MEL-28 melanoma,> 100000 nM
same,GI50,NCI-H522 lung,200 nM
same,TGI,NCI-H522 lung,21400 nM
same,GI50,UACC-62 melanoma,237 nM
same,TGI,UACC-62 melanoma,8490 nM
same,GI50,MDA-MB-468 breast,344 nM
same,TGI,MDA-MB-468 breast,6980 nM
same,GI50,NCI-H23 lung,1460 nM
same,TGI,NCI-H23 lung,> 100000 nM
same,GI50,MDA-MB-435 melanoma,515 nM
same,TGI,MDA-MB-435 melanoma,24200 nM
same,GI50,SK-MEL-5 melanoma,200 nM
same,TGI,SK-MEL-5 melanoma,2620 nM
same,GI50,OVCAR-4 ovarian,901 nM
same,TGI,OVCAR-4 ovarian,8950 nM
same,GI50,CCRF-CEM leukemia,261 nM
same,TGI,CCRF-CEM leukemia,10600 nM
same,GI50,ACHN renal,479 nM
same,TGI,ACHN renal,> 100000 nM
same,GI50,HL-60(TB) leukemia,2470 nM
same,TGI,HL-60(TB) leukemia,17100 nM
same,GI50,K-562 leukemia,517 nM
same,TGI,K-562 leukemia,72000 nM
same,GI50,HS 578T breast,173 nM
same,TGI,HS 578T breast,523 nM
same,GI50,RXF 393 renal,438 nM
same,TGI,RXF 393 renal,92400 nM
same,GI50,NCI-H322M lung,280 nM
same,TGI,NCI-H322M lung,52900 nM
same,GI50,HCC-2998 colon,2540 nM
same,TGI,HCC-2998 colon,34800 nM

# Reference: PubChem BioAssay (NCI)
